Results taken from US5321043A, “Method of combatting transplant rejection” (The University of Melbourne, priority 1992, dated 1994).
“Also recorded” adds a separate entry of the source.

Tests used:
[1] = system: New Zealand White rabbits; experiment: Acute cyclosporine (CyA) nephrotoxicity in rabbits (serum creatinine, urea, histology); assay type: in vivo, rabbit; conditions: Compound A 50 ug/kg/day s.c. with CyA 100 mg/kg/day i.v.
Method: 50 ug/kg/day was administered subcutaneously for seven days. Ethanol (50 ul/kg/day) was administered in vehicle-only control animals.
Serum creatinine (Cr) and urea were measured prior to commencement of treatment (day 0) and 24 hours following treatment (day 7). Day 7 renal biopsies were stained with haematoxylin and eosin and Masson's trichrome.

[2] = system: MLC response of responder lymphocytes to irradiated EBV-transformed lymphoblastoid cells; experiment: Mixed lymphocyte culture (MLC) suppression by CyA and PG analogues, alone and combined (tritiated thymidine uptake); assay type: cell-based, human; conditions: for decrease in PG analogue concentration necessary for 50% MLC suppression when combined with CyA vs alone / interaction with CyA on MLC suppression: combination with CyA; for Suppression of MLC responses, mean % decrease of cpm vs drug-free cultures: mean of five donors
Method: Heparinised blood was obtained from five healthy donors without history of previous blood transfusion, pregnancy, or organ transplantation.
Prostaglandin (PG) analogues PGE1, PGE2, PGF2a, and PGI2 were supplied by the Upjohn Company (Kalamazoo, Mich.) in the form of 15-(s)-15-methyl PGE1, 16,16-dimethyl PGE2, 16,16-dimethyl PGF2α, and 9-deoxy-2,9a-methano-3-oxa-4,5,6-trinor-3,7-(1', 3'-interphenylene)-13,14'-dihydroprostaglandin FI (Compound A). Each was provided in methyl acetate at 10 mg/mL that was subsequently diluted, first with ethyl alcohol to a concentration of 1 mg/mL and thereafter with physiological saline to the concentration range required for the study, 10.0-0.001 μg/mL.
Responder lymphocytes were isolated from the healthy donor heparinised blood by density gradient separation and suspended in glutamine, antibiotic-supplemented RPMI medium containing 10% autologous responder lymphocyte donor serum at a concentration of 1 ×10^6 cells/mL. The stimulator population consisted of Epstein-Barr virus (EBV)-transformed lymphoblastoid cells that were irradiated (130 Gy) before suspension also at 1×10^6 cells/mL in glutamine, antibiotic-supplemented RPMI medium that contained 10% autologous responder lymphocyte donor serum.
Equal volumes (0.1 mL) of responder and stimulator cells were incubated in triplicate wells of microtitre trays with each of the following:
Following incubation at 37° C. (5% CO2) for 4 days, […] of tritiated thymidine was added to all cultures before further incubation for 6-8 hours, after which cells were automatically harvested (Skatron, Liebyen, Norway) on Titertek filter paper (Flow Laboratories, Irvine, Scotland) that was placed in vials containing liquid scintillation fluid for counting in a Beckman beta counter (Beckman, Brea, Calif.).

renal allograft = experiment: Rabbit renal allograft survival; assay type: in vivo
Method: Left orthotopic renal transplantation was performed from New Zealand White rabbit donors into Anglo lop-ear recipients. See D. Francis et al., Aust. N. Z. J. Surgery 60, 45, 1990. Contralateral nephrectomy and graft biopsy were performed on the first post-operative day. Each recipient was subsequently dependent on its transplant for renal function. Serum creatinine (sCr) was measured every 48 hours and animals were culled once sCr had risen above 1.2 mMoles/1, taken as an arbitrary end-point representing graft failure. Graft biopsies were performed weekly and post-mortem to ensure that graft loss was secondary to rejection. Standard haematoxylin and eosin and Masson's trichrome stains were performed.
Compound A was provided as a powder which was dissolved in absolute ethanol to yield a 1 mg/ml solution. 50 μg/kg/day was administered subcutaneously for seven days commencing perioperatively. Ethanol (50 μl/kg/day) was administered in vehicle-only control animals.

[3] = Blood CyA levels after seven days treatment in nephrotoxicity study (Abbott TDX fluorescence immunoassay); assay type: in vivo, rabbit; conditions: CyA administered parenterally
Method: Compound A was provided as a powder which was dissolved in absolute ethanol to yield a […] solution. 50 ug/kg/day was administered subcutaneously for seven days. Ethanol (50 ul/kg/day) was administered in vehicle-only control animals.

[4] = PG analogue 0.01 μg/mL + CyA 0.001 μg/mL
[5] = PG analogue 0.01 μg/mL + CyA 0.01 μg/mL
[6] = PG analogue 0.01 μg/mL + CyA 0.1 μg/mL
[7] = PG analogue 0.01 μg/mL + CyA 1.0 μg/mL
[8] = PG analogue 0.01 μg/mL + CyA 10.0 μg/mL
[9] = PG analogue 0.1 μg/mL + CyA 0.001 μg/mL
[10] = PG analogue 0.1 μg/mL + CyA 0.01 μg/mL
[11] = PG analogue 0.1 μg/mL + CyA 0.1 μg/mL
[12] = PG analogue 0.1 μg/mL + CyA 1.0 μg/mL
[13] = PG analogue 0.1 μg/mL + CyA 10.0 μg/mL
[14] = PG analogue 1.0 μg/mL + CyA 0.001 μg/mL
[15] = PG analogue 1.0 μg/mL + CyA 0.01 μg/mL
[16] = PG analogue 1.0 μg/mL + CyA 0.1 μg/mL
[17] = PG analogue 1.0 μg/mL + CyA 1.0 μg/mL
[18] = PG analogue 1.0 μg/mL + CyA 10.0 μg/mL
[19] = PG analogue 10.0 μg/mL + CyA 0.001 μg/mL
[20] = PG analogue 10.0 μg/mL + CyA 0.01 μg/mL
[21] = PG analogue 10.0 μg/mL + CyA 0.1 μg/mL
[22] = PG analogue 10.0 μg/mL + CyA 1.0 μg/mL
[23] = PG analogue 10.0 μg/mL + CyA 10.0 μg/mL

Row | Compound | Suppression of MLC responses by CyA in combination with PG analogue [2, 4] [%] | Suppression of MLC responses by CyA in combination with PG analogue [2, 5] [%] | Suppression of MLC responses by CyA in combination with PG analogue [2, 6] [%] | Suppression of MLC responses by CyA in combination with PG analogue [2, 7] [%] | Suppression of MLC responses by CyA in combination with PG analogue [2, 8] [%] | Suppression of MLC responses by CyA in combination with PG analogue [2, 9] [%] | Suppression of MLC responses by CyA in combination with PG analogue [2, 10] [%] | Suppression of MLC responses by CyA in combination with PG analogue [2, 11] [%] | Suppression of MLC responses by CyA in combination with PG analogue [2, 12] [%] | Suppression of MLC responses by CyA in combination with PG analogue [2, 13] [%] | Suppression of MLC responses by CyA in combination with PG analogue [2, 14] [%] | Suppression of MLC responses by CyA in combination with PG analogue [2, 15] [%] | Suppression of MLC responses by CyA in combination with PG analogue [2, 16] [%] | Suppression of MLC responses by CyA in combination with PG analogue [2, 17] [%] | Suppression of MLC responses by CyA in combination with PG analogue [2, 18] [%] | Suppression of MLC responses by CyA in combination with PG analogue [2, 19] [%] | Suppression of MLC responses by CyA in combination with PG analogue [2, 20] [%] | Suppression of MLC responses by CyA in combination with PG analogue [2, 21] [%] | Suppression of MLC responses by CyA in combination with PG analogue [2, 22] [%] | Suppression of MLC responses by CyA in combination with PG analogue [2, 23] [%] | further results
1 | CCCCC[C@H](O)CC[C@@H]1[C@H]2Cc3cccc(OCC(=O)O)c3C[C@H]2C[C@H]1O [Compound A, 9-deoxy-2',9α-methano-3-oxa-4,5,6-trinor-3,7-(1',3'-interphenylene)-13, 14--dihydro-prostaglandinF1] | 27 | 58 | 75 | 86 | 87 | 68 | 76 | 86 | 85 | 85 | 81 | 85 | 85 | 85 | 88 | 86 | 88 | 85 | 86 | 86 | effect on renal function, as measured by serum Cr and urea [1]: significant protective effect on renal function; effect on renal function, as measured by serum Cr and urea ([1]; listed as PGI2 analogue): significant protective affect on renal function; decrease in PG analogue concentration necessary for 50% MLC suppression when combined with CyA vs alone [2]: 10 fold; interaction with CyA on MLC suppression [2]: a synergy that parallels that observed between CyA and the PGE analogues; Suppression of MLC responses, mean % decrease of cpm vs drug-free cultures ([2]; single agent at 0.001 μg/mL): 10%; Suppression of MLC responses, mean % decrease of cpm vs drug-free cultures ([2]; single agent at 0.01 μg/mL): 22%; Suppression of MLC responses, mean % decrease of cpm vs drug-free cultures ([2]; single agent at 0.1 μg/mL): 51%; Suppression of MLC responses, mean % decrease of cpm vs drug-free cultures ([2]; single agent at 1.0 μg/mL): 61%; Suppression of MLC responses, mean % decrease of cpm vs drug-free cultures ([2]; single agent at 10.0 μg/mL): 77%; times more effective in suppressing the MLC response than PGE1 and PGE2 ([2]; single agents): 10 times; effect on renal allograft survival (renal allograft; Compound A 50 μg/kg/day s.c., CyA 20 mg/kg where combined): prolonged allograft survival over that of untreated animals; Median Graft Survival (renal allograft; Compound A 50 μg/kg/day subcutaneously for seven days, no CyA): 13.5 days; effect on CyA bioavailability [3]: without effecting CyA bioavailability
2 | CCCCC(C)(C)[C@H](O)/C=C/[C@H]1[C@H](O)CC(=O)[C@@H]1C/C=C\CCCC(=O)O [PGE2, 16,16-dimethyl PGE2] | 23 | 49 | 55 | 63 | 68 | 26 | 52 | 58 | 66 | 70 | 58 | 56 | 67 | 80 | 85 | 60 | 71 | 72 | 88 | 86 | decrease in PG analogue concentration necessary for 50% MLC suppression when combined with CyA vs alone [2]: 100 fold; Suppression of MLC responses, mean % decrease of cpm vs drug-free cultures ([2]; single agent at 0.001 μg/mL): 6%; Suppression of MLC responses, mean % decrease of cpm vs drug-free cultures ([2]; single agent at 0.01 μg/mL): 18%; Suppression of MLC responses, mean % decrease of cpm vs drug-free cultures ([2]; single agent at 0.1 μg/mL): 32%; Suppression of MLC responses, mean % decrease of cpm vs drug-free cultures ([2]; single agent at 1.0 μg/mL): 51%; Suppression of MLC responses, mean % decrease of cpm vs drug-free cultures ([2]; single agent at 10.0 μg/mL): 58%; times more effective in suppressing the MLC response than the PGF2a analogue ([2]; single agents): 10 times
3 | CCCCC(C)(C)[C@H](O)/C=C/[C@@H]1[C@@H](C/C=C\CCCC(=O)O)[C@@H](O)C[C@H]1O [PGF2α, 16,16-dimethyl PGF2α] | 14 | 25 | 55 | 70 | 86 | 14 | 24 | 55 | 72 | 86 | 31 | 30 | 58 | 76 | 85 | 58 | 65 | 69 | 79 | 86 | interaction with CyA on MLC suppression ([2]; listed as PGF2a): no influence further than that exerted when each was added alone; also recorded: no indication of synergistic interaction with CyA; minimum concentration which alone induced 50% MLC inhibition ([2]; single agent): 10.0 µg/mL; Suppression of MLC responses, mean % decrease of cpm vs drug-free cultures ([2]; single agent at 0.001 μg/mL): 0%; Suppression of MLC responses, mean % decrease of cpm vs drug-free cultures ([2]; single agent at 0.01 μg/mL): 4%; Suppression of MLC responses, mean % decrease of cpm vs drug-free cultures ([2]; single agent at 0.1 μg/mL): 16%; Suppression of MLC responses, mean % decrease of cpm vs drug-free cultures ([2]; single agent at 1.0 μg/mL): 29%; Suppression of MLC responses, mean % decrease of cpm vs drug-free cultures ([2]; single agent at 10.0 μg/mL): 50%
